Measured values from patent publication US9610233B2, “Hair thickening compositions and methods of use” (The Procter & Gamble Company, priority 2013, dated 2017).

Legend:
[1] = Viscosity Test Method (cone and plate viscometer/rheometer); assay type: physicochemical; settings: Sepigel 1.89%
Excerpt: The hair care composition may have a viscosity of from about 2,000 cps to about 20,000 cps, alternatively from about 10,000 cps to about 15,000 cps. The viscosity of the hair care composition may be determined by a cone and plate viscometer/rheometer which measures the viscous drag resulting from the sample material contained in the gap between a rotating cone and a stationary plate. The geometry of the cone and plate may be such that the entire sample is subjected to a uniform shear rate. A Brookfield Rheometer RS, with Cone C75-1, 26.7° C. temperature, 2.5 mL sample size, at 2 res/sec for 3 minutes may be used.

[2] = Measurement of Average Thickness Increase of single hair fibers; settings: Sepigel 1.89%, Example 1 formula, fibers treated 10 minutes, dried overnight
Procedure: Measurement of Average Thickness Increase
• 1) Asian or Caucasian hair fibers (low-lift general population) are soaked in deionized water for 10 minutes, and allowed to equilibrate overnight in at Controlled Temperature and Humidity room (20 C, 50 RH). • 2) The single hair fibers are imaged with microscope and the diameter is measured using software for baseline measurement. • 3) The hair fibers are then treated with the hair care composition for 10 minutes to allow for saturation. The fibers are then removed and allowed to equilibrate and dry overnight. • 4) The next day, the fibers are imaged and measured for a final reading. For each experiment, untreated control and product treatment controls are ran, and at least 5 fibers are measured per treatment. • 5) In order to measure increase in thickness as a function of treatment, the […]. The average thickness increase is reported in the Table above, with measurements reported in micrometers. Viscosity Test Method

Viscosity ([1]; composition with Resorcinol 0.5%): 14767 cps
Viscosity ([1]; composition with Resorcinol 1%): 12115 cps
Viscosity ([1]; composition with Resorcinol 2%): 13812 cps
Viscosity ([1]; composition with Resorcinol 5%): 12047 cps
Viscosity ([1]; composition with Resorcinol 8%): 10308 cps
Compound: Oc1cccc(O)c1 [Resorcinol, 1,3-Dihydroxybenzene]
Average Thickness Increase ([2]; Resorcinol 0.5%): 4.2 μm
Average Thickness Increase ([2]; Resorcinol 1%): 3.9 μm
Average Thickness Increase ([2]; Resorcinol 2%): 13.5 μm
Average Thickness Increase ([2]; Resorcinol 5%): 10.7 μm
Average Thickness Increase ([2]; Resorcinol 8%): 10.3 μm
